Reference: patent publication US20040132156A1, “Modified hepsin molecules having a substitute activation sequence and uses thereof” (Schering Aktiengesellschaft, priority 2002, published 2004)
Read-outs that look alike come from different tables or passages of the source.

System: hepsin mRNA in LNCaP cells
Details: DHT 10 nM, 24 or 72 hours, Northern blot, compared to GAPDH
Procedure: The prostate cancer cell lines, LNCaP, were obtained from ATCC. The LNCaP cells were treated with dihydrotestosterone (Sigma A 8380) in order to study the response of hepsin mRNA expression to androgens. The confluent cells were cultured in growth medium containing charcoal-stripped FBS for 24 hours. DHT was added to each flask at 10 nM. For control cells, ethanol was added as a vehicle control. The cells were incubated for 24 or 72 hours.
Total RNA was isolated from the cell lines using the RNeasy Maxi Kit (Qiagen), as described in section E above. The Northern gel and blot methods were performed as described in section A above.
The fold-increase of the amount of hepsin mRNA compared to GAPDH was performed according to section C above.

C[C@]12CCC(=O)C[C@@H]1CC[C@@H]1[C@@H]2CC[C@]2(C)[C@@H](O)CC[C@@H]12 [DHT, dihydrotestosterone]
hepsin mRNA transcript levels: increased | hepsin mRNA transcript levels (listed as dihydrotestosterone): Up-regulation
